According to paper PMC7690281 (Antiviral Research, 2020):
“Also recorded” adds a separate entry of the source. Structures can show the parent of a compound that is named as a salt.

What was measured:
[1] = system: VSV pseudovirions with EBOV GP (rVSV-EBOV-luc); format: cell-based, Ebola virus (EBOV)
[2] = system: acidic endosomes of Vero cells; format: cell-based
ASFV Bpp30GFP = format: cell-based, African swine fever virus (ASFV); settings: for reduction of ASFV infectivity: 10 μM
[3] = system: SARS-2-CoV spike protein-pseudotyped retrovirus (SARS-2-Spp); format: cell-based, SARS-CoV-2
[4] = system: ASFV viral DNA (p72 gene); format: cell-based, African swine fever virus (ASFV)
[5] = system: ASFV early p30 and late p72 proteins; format: cell-based, African swine fever virus (ASFV)
[6] = system: endolysosomal calcium in Vero cells; format: cell-based

## Cc1cccc(/C=N/Nc2cc(N3CCOCC3)nc(OCCc3ccccn3)n2)c1 [Apilimod]
[1]
  infectivity reduction, EBOV GP pseudovirus: over 75%

## CO/C1=C\C(C)=C\[C@@H](C)[C@@H](O)[C@@H](C)C/C(C)=C/C=C/[C@H](OC)[C@@H]([C@@H](C)[C@@H](O)[C@H](C)[C@@]2(O)C[C@@H](O)[C@H](C)[C@@H](C(C)C)O2)OC1=O [BAF, Bafilomycin]
[2]
  endosome acidification (LysoTracker Red staining): strong reduction of acidic endosomes

## C[C@]12CC[C@@H]3c4ccc(O)cc4CC[C@H]3[C@@H]1CC[C@@H]2O [Estradiol, β-Estradiol]
ASFV Bpp30GFP
  effect on ASFV infection/entry: low impact

## C[C@]12CC[C@@H]3c4ccc(O)cc4C[C@@H](CCCCCCCCC[S+]([O-])CCCC(F)(F)C(F)(F)F)[C@H]3[C@@H]1CC[C@@H]2O (stereo partly drawn) [Fulvestran, Fulvestrant]
ASFV Bpp30GFP; 100 μM
  impact on ASFV infectivity: under 20%

## Cl.O=C(c1ccc(OCCN2CCCCC2)cc1)c1c(-c2ccc(O)cc2)sc2cc(O)ccc12 [Raloxifen, Raloxifene hydrochloride]
[3]
  reduction of SARS-2-Spp entry (luciferase levels) compared to vehicle: over 90%
ASFV Bpp30GFP
  effect on ASFV infection/entry: potent inhibitory effect; also recorded: strongly reduced ASFV entry
  reduction of ASFV infectivity: 80%
[4]
  viral DNA replication (ASFV genome copy number): reduced viral DNA synthesis
[5]
  expression of early viral protein p30 and late viral protein p72: reduction of the expression of early viral protein p30 and late viral protein p72
[6]
  distribution of calcium indicator Fluo8: calcium indicator markedly accumulated in fluorescent vesicles
  distribution of calcium indicator Fluo8 and viral factories: marked accumulation of fluorescent vesicles and the absence of viral factories

## CC/C(=C(\c1ccccc1)c1ccc(OCCN(C)C)cc1)c1ccccc1 [Tamoxifen, Tamoxifen citrate]
ASFV Bpp30GFP
  effect on ASFV infection/entry: potent inhibitory effect; also recorded: strongly reduced ASFV entry
  reduction of ASFV infectivity: 80%
[4]
  viral DNA replication (ASFV genome copy number): reduced viral DNA synthesis
[5]
  expression of early viral protein p30 and late viral protein p72: reduction of the expression of early viral protein p30 and late viral protein p72

## COc1ccc2cc1Oc1ccc(cc1)C[C@H]1c3cc(c(OC)cc3CCN1C)Oc1c(OC)c(OC)cc3c1[C@H](C2)N(C)CC3 [Tetrandine, Tetrandrine]
[3]
  reduction of SARS-2-Spp entry (luciferase levels) compared to vehicle: over 99%

## COc1ccc(CCN(C)CCCC(C#N)(c2ccc(OC)c(OC)c2)C(C)C)cc1OC (stereo not drawn) [Verapamil]
[3]
  reduction of SARS-2-Spp entry (luciferase levels) compared to vehicle: over 90%

## Nc1ccc(C(=O)Nc2cccc(-c3nc(N4CCOCC4)c4oc5ncccc5c4n3)c2)cn1 [YM201636]
[3]; 1 μM
  reduction in the luciferase activity levels (SARS-2-Spp): 65%
